ChEMBL document CHEMBL4257548, “Phenothiazine antioxidants increase mitochondrial biogenesis and frataxin levels in Friedreich's ataxia cells” (Medchemcomm, 2018)
The source made the active and inactive calls. The calls are words filed in the database; no cut-off is given here.

Experiments:
GM16216 [1] = experiment: Induction of mitochondrial biogenesis in human GM16216 cells assessed as ratio of COX1 to SDH-A protein levels at 50 after 48 hrs by ELISA relative to control; assay type: functional
GM16216 [2] = experiment: Effect on mitochondrial membrane potential in human GM16216 cells assessed as intact mitochondrial membrane at 0.25 uM after 16 hrs by JC1 staining based flow cytometry (reference value: 87%); assay type: functional
GM16216 [3] = experiment: Effect on mitochondrial membrane potential in human GM16216 cells assessed as loss of mitochondrial membrane potential at 0.25 uM after 16 hrs by JC1 staining based flow cytometry (reference value: 13%); assay type: functional
GM16216 [4] = experiment: Effect on frataxin expression in human GM16216 cells at 250 nM after 24 hrs by ELISA relative to control; assay type: functional
GM15850 [5] = experiment: Effect on frataxin expression in human GM15850 cells at 250 nM after 48 hrs by ELISA relative to control; assay type: functional
GM15850 [6] = experiment: Effect on frataxin expression in human GM15850 cells at 50 nM after 24 hrs by ELISA relative to control; assay type: functional
GM15850 [7] = experiment: Induction of mitochondrial biogenesis in human GM15850 cells assessed as ratio of COX1 to SDH-A protein levels at 250 after 24 hrs by ELISA relative to control; assay type: functional
GM15850 [8] = experiment: Induction of mitochondrial biogenesis in human GM15850 cells assessed as ratio of COX1 to SDH-A protein levels at 250 after 48 hrs by ELISA relative to control; assay type: functional
GM15850 [9] = experiment: Effect on frataxin expression in human GM15850 cells at 50 nM after 48 hrs by ELISA relative to control; assay type: functional
GM16216 [10] = experiment: Effect on frataxin expression in human GM16216 cells at 250 nM after 48 hrs by ELISA relative to control; assay type: functional
GM15850 [11] = experiment: Effect on mitochondrial membrane potential in human GM15850 cells assessed as loss of mitochondrial membrane potential at 0.25 uM after 16 hrs by JC1 staining based flow cytometry (reference value: 13%); assay type: functional
GM16216 [12] = experiment: Restoration of total aconitase activity in human GM16216 cells at 50 nM after 5 days by colorimetric method relative to control; assay type: functional
GM15850 [13] = experiment: Effect on mitochondrial membrane potential in human GM15850 cells assessed as intact mitochondrial membrane at 0.25 uM after 16 hrs by JC1 staining based flow cytometry (reference value: 87%); assay type: functional
GM16216 [14] = experiment: Effect on frataxin expression in human GM16216 cells at 50 nM after 24 hrs by ELISA relative to control; assay type: functional
GM15850 [15] = experiment: Induction of mitochondrial biogenesis in human GM15850 cells assessed as ratio of COX1 to SDH-A protein levels at 50 after 48 hrs by ELISA relative to control; assay type: functional
GM15850 [16] = experiment: Cytoprotection against DEM-induced toxicity in human GM15850 cells assessed as increase in cell viability at 0.1 to 2.5 uM pretreated for 16 hrs followed by DEM addition and measured after 5 hrs by live/dead staining based flow cytometry; assay type: functional
GM15850 [17] = experiment: Effect on frataxin expression in human GM15850 cells at 250 nM after 24 hrs by ELISA relative to control; assay type: functional
GM15850 [18] = experiment: Restoration of total aconitase activity in human GM15850 cells at 50 nM after 5 days by colorimetric method relative to control; assay type: functional
GM16216 [19] = experiment: Effect on frataxin expression in human GM16216 cells at 50 nM after 48 hrs by ELISA relative to control; assay type: functional
GM16216 [20] = experiment: Restoration of total aconitase activity in human GM16216 cells at 250 nM after 5 days by colorimetric method relative to control; assay type: functional
GM16216 [21] = experiment: Induction of mitochondrial biogenesis in human GM16216 cells assessed as ratio of COX1 to SDH-A protein levels at 50 after 24 hrs by ELISA relative to control; assay type: functional
GM16216 [22] = experiment: Cytoprotection against DEM-induced toxicity in human GM16216 cells assessed as increase in cell viability at 0.1 to 2.5 uM pretreated for 16 hrs followed by DEM addition and measured after 5 hrs by live/dead staining based flow cytometry; assay type: functional
GM15850 [23] = experiment: Induction of mitochondrial biogenesis in human GM15850 cells assessed as ratio of COX1 to SDH-A protein levels at 50 after 24 hrs by ELISA relative to control; assay type: functional
GM16216 [24] = experiment: Induction of mitochondrial biogenesis in human GM16216 cells assessed as ratio of COX1 to SDH-A protein levels at 250 after 24 hrs by ELISA relative to control; assay type: functional
GM16216 [25] = experiment: Induction of mitochondrial biogenesis in human GM16216 cells assessed as ratio of COX1 to SDH-A protein levels at 250 after 48 hrs by ELISA relative to control; assay type: functional
GM15850 [26] = experiment: Restoration of total aconitase activity in human GM15850 cells at 250 nM after 5 days by colorimetric method relative to control; assay type: functional
GM16216 [27] = experiment: Cytotoxicity against human GM16216 cells at 0.25 to 2.5 uM after 24 to 48 hrs by live/dead staining-based flow cytometry; assay type: cell-based; details: gm16216, 2.5 µM
GM15850 [28] = experiment: Cytotoxicity against human GM15850 cells at 0.25 to 2.5 uM after 24 to 48 hrs by live/dead staining-based flow cytometry; assay type: cell-based; details: gm15850, 2.5 µM
GM15850 [29] = experiment: Inhibition of ATP production in human GM15850 cells at 2.5 uM after 24 hrs by Vialight reagent based luminescence assay; assay type: functional, cell-based
GM15850 [30] = experiment: Increase in frataxin expression in human GM15850 cells at 250 nM after 24 to 48 hrs by ELISA; assay type: functional, cell-based
GM16216 [31] = experiment: Cytoprotection against DEM-induced toxicity in human GM16216 cells assessed as increase in cell viability at 0.5 to 2.5 uM pretreated for 16 hrs followed by DEM addition and measured after 5 hrs by live/dead staining based flow cytometry; assay type: functional
GM16216 [32] = experiment: Increase in frataxin expression in human GM16216 cells at 250 nM after 24 to 48 hrs by ELISA; assay type: functional, cell-based
GM16216 [33] = experiment: Inhibition of ATP production in human GM16216 cells at 2.5 uM after 24 hrs by Vialight reagent based luminescence assay; assay type: functional, cell-based
GM16216 [34] = experiment: Increase in ATP production in human GM16216 cells at 0.1 to 0.5 uM after 24 hrs by Vialight reagent based luminescence assay; assay type: functional, cell-based
GM16216 [35] = experiment: Increase in frataxin expression in human GM16216 cells at 50 nM after 24 to 48 hrs by ELISA; assay type: functional, cell-based
GM15850 [36] = experiment: Increase in frataxin expression in human GM15850 cells at 50 nM after 24 to 48 hrs by ELISA; assay type: functional, cell-based
GM15850 [37] = experiment: Increase in ATP production in human GM15850 cells at 0.1 to 0.5 uM after 24 hrs by Vialight reagent based luminescence assay; assay type: functional, cell-based
GM15850 [38] = experiment: Cytoprotection against DEM-induced toxicity in human GM15850 cells assessed as increase in cell viability at 0.5 to 2.5 uM pretreated for 16 hrs followed by DEM addition and measured after 5 hrs by live/dead staining based flow cytometry; assay type: functional
GM16216 [39] = experiment: Effect on ATP production in human GM16216 cells at 0.1 uM after 24 hrs by Vialight reagent based luminescence assay; assay type: functional, cell-based
GM16216 [40] = experiment: Cytotoxicity against human GM16216 cells at 2.5 uM after 24 to 48 hrs by live/dead staining-based flow cytometry; assay type: cell-based; details: gm16216, 2.5 µM
GM15850 [41] = experiment: Cytotoxicity against human GM15850 cells at 2.5 uM after 24 to 48 hrs by live/dead staining-based flow cytometry; assay type: cell-based; details: gm15850, 2.5 µM
GM15850 [42] = experiment: Inhibition of ATP production in human GM15850 cells after 24 hrs by Vialight reagent based luminescence assay; assay type: functional, cell-based
GM16216 [43] = experiment: Inhibition of ATP production in human GM16216 cells after 24 hrs by Vialight reagent based luminescence assay; assay type: functional, cell-based
GM15850 [44] = experiment: Effect on ATP production in human GM15850 cells at 0.1 uM after 24 hrs by Vialight reagent based luminescence assay; assay type: functional, cell-based

## CN(C)c1ccc2nc3ccc(=O)cc-3sc2c1
GM16216 [1]
  Activity: 122%
GM16216 [2]
  Activity: 85%
GM16216 [3]
  Activity: 15%
GM16216 [4]
  Activity: 114%
GM15850 [5]
  Activity: 115%
GM15850 [6]
  Activity: 111%
GM15850 [7]
  Activity: 117%
GM15850 [8]
  Activity: 131%
GM15850 [9]
  Activity: 113%
GM16216 [10]
  Activity: 115%
GM15850 [11]
  Activity: 15%
GM16216 [12]
  Activity: 110%
GM15850 [13]
  Activity: 85%
GM16216 [14]
  Activity: 111%
GM15850 [15]
  Activity: 122%
GM15850 [16]
  Activity: Active
GM15850 [17]
  Activity: 114%
GM15850 [18]
  Activity: 110%
GM16216 [19]
  Activity: 113%
GM16216 [20]
  Activity: 113%
GM16216 [21]
  Activity: 115%
GM16216 [22]
  Activity: Active
GM15850 [23]
  Activity: 115%
GM16216 [24]
  Activity: 117%
GM16216 [25]
  Activity: 131%
GM15850 [26]
  Activity: 113%

## CCCCCCCCCCCCCCCCc1cc2nc3ccc(N(C)C)cc3sc-2cc1=[N+](C)C.[I-]
GM16216 [2]
  Activity: 86%
GM16216 [3]
  Activity: 14%
GM16216 [27]
  Activity: Non-Toxic
GM15850 [28]
  Activity: Non-Toxic
GM15850 [11]
  Activity: 14%
GM15850 [29]
  inhibition: Active
GM15850 [30]
  Activity: inactive
GM15850 [13]
  Activity: 86%
GM16216 [31]
  Activity: Active
GM16216 [32]
  Activity: inactive
GM16216 [33]
  inhibition: Active
GM16216 [34]
  Activity: Active
GM16216 [35]
  Activity: Active
GM15850 [36]
  Activity: Active
GM15850 [37]
  Activity: Active
GM15850 [38]
  Activity: Active

## CCCCCc1cc2nc3ccc(N(C)C)cc3sc-2cc1=[N+](C)C.[I-]
GM16216 [2]
  Activity: 81%
GM16216 [3]
  Activity: 19%
GM16216 [39]
  Activity: inactive
GM16216 [40]
  Activity: Toxic
GM15850 [11]
  Activity: 19%
GM15850 [41]
  Activity: Toxic
GM15850 [42]
  inhibition: Dose-dependent effect
GM15850 [13]
  Activity: 81%
GM16216 [31]
  Activity: Active
GM16216 [43]
  inhibition: Dose-dependent effect
GM15850 [44]
  Activity: inactive
GM15850 [38]
  Activity: Active

## CCCCCCCCCCCc1cc2nc3ccc(N(C)C)cc3sc-2cc1=[N+](C)C.[I-]
GM16216 [2]
  Activity: 82%
GM16216 [3]
  Activity: 18%
GM16216 [39]
  Activity: inactive
GM16216 [40]
  Activity: Toxic
GM15850 [11]
  Activity: 18%
GM15850 [41]
  Activity: Toxic
GM15850 [42]
  inhibition: Dose-dependent effect
GM15850 [30]
  Activity: inactive
GM15850 [13]
  Activity: 82%
GM16216 [32]
  Activity: inactive
GM16216 [43]
  inhibition: Dose-dependent effect
GM16216 [35]
  Activity: Active
GM15850 [44]
  Activity: inactive
GM15850 [36]
  Activity: Active
